In US20250235451A1, “Methods of Delaying Pain Progression And Treating Prostate Cancer” (ASTRAZENECA AB, priority 2020, published 2025):

How the values were obtained:
[1] = test system: metastatic castration-resistant prostate cancer (mCRPC) with BRCA1, BRCA2, and/or ATM alterations; test: Phase III trial NCT02987543, efficacy in Cohort A (alterations in BRCA1, BRCA2 and/or ATM); assay type: in vivo, human
Source text: (§1) Patient population. In clinical trial NCT02987543, eligible patients were male, aged ≥18 years with histological diagnosis of prostate cancer, confirmed mCRPC, whose disease had progressed after one or more treatments with new hormonal agent (NHA) (e.g., enzalutamide or abiraterone, administered for metastatic or non-metastatic castration-resistant prostate cancer, as well as metastatic hormone-sensitive prostate cancer). Prior taxane chemotherapy was allowed. Men without prior surgical castration were required to continue luteinizing-hormone-releasing hormone analog therapy. Patients had adequate organ and bone marrow function. Full eligibility criteria are provided in the trial protocol. All patients provided written informed consent. An investigational clinical trial assay, based on the FoundationOne® CDx next-generation sequencing test was used to prospectively identify patients with qualifying deleterious or suspected deleterious alterations in one or more of the 15 prespecified genes selected for their direct or indirect role in HRR: BRCA1, BRCA2, ATM, BRIP1, BARD1, CDK12, CHEK1, CHEK2, FANCL, PALB2, PPP2R2A, RAD51B, RAD51C, RAD51D, and RAD54L. Tumor testing was conducted centrally using archival or recent biopsy tissue from primary or metastatic disease. Presence of deleterious or suspected deleterious alteration by the central tumor test was required for eligibility, irrespective of the zygosity of the alteration.
(§2) Study design. This was a prospective, randomized, open-label, Phase III study. Eligible patients were included in one of two cohorts depending on their qualifying gene alteration. Cohort A included patients with BRCA1, BRCA2 and/or ATM alterations, regardless of co-occurring qualifying alterations in any of the other genes. Cohort B included patients with alterations in any of the other 12 genes. The overall population comprised patients from Cohort A and Cohort B (i.e., patients with a qualifying alteration in any of the 15 prespecified genes).
(§3) Randomization was stratified by previous taxane use (yes/no) and measurable disease (yes/no). Treatment was continued until objective radiographic disease progression assessed by a third-party vendor blinded independent central review (BICR), or unacceptable toxicity. Patients randomized to the control arm were eligible to cross over to olaparib treatment upon BICR-confirmed radiographic progression.
(§4) The primary endpoint was rPFS assessed by BICR in patients with BRCA1, BRCA2, and/or ATM alterations (Cohort A). rPFS was defined as the time from randomization until soft-tissue disease progression (by Response Evaluation Criteria in Solid Tumors (RECIST) v1.1), bone lesion progression (by Prostate Cancer Working Group 3 (PCWG3) criteria) or death. A prespecified sensitivity analysis of rPFS based on investigator assessment was performed. rPFS by BICR in the overall population was also a secondary endpoint.
(§5) Additional secondary endpoints evaluated included confirmed radiographic objective response rate (ORR), time to pain progression (TTPP), overall survival (OS), prostate-specific antigen (PSA) response (PSA50 response) and circulating tumor cell (CTC) conversion rate. ORR was assessed among evaluable patients who had measurable disease at baseline as assessed by BICR using RECIST v1.1 (responses were also assessed by BICR using RECIST v1.1, were confirmed and required absence of progression on bone scan assessed by PCWG3). OS is defined as time from randomization to time point at which death due to any cause occurs. A pre-specified sensitivity analysis for the crossover effect on OS was performed. Safety was assessed in the overall population through reporting of Common Terminology Criteria for Adverse Events (CTCAE) v4.0 and collection of clinical chemistry and hematology parameters.
(§6) Time to pain progression (TTPP) was based on Brief Pain Inventory-Short Form item 3 ('worst pain in 24 hours) and initiation of opiate analgesic use (Analgesic Quantification Algorithm score). […]

[2] = test system: metastatic castration-resistant prostate cancer (mCRPC) with a qualifying alteration in any of 15 prespecified HRR genes; test: Phase III trial NCT02987543, efficacy in the overall population (Cohorts A + B); assay type: in vivo, human
Source text: as §1, §2, §3, §4, §5, §6

[3] = Phase III trial NCT02987543, safety (adverse events, CTCAE v4.0) in the overall population; assay type: in vivo
Experimental: as §5
Blood samples for PSA assessments were collected at baseline, every 4 weeks until week 24, then every 8 weeks until study treatment discontinuation, and for CTC analyses were collected at baseline and then every 8 weeks until study treatment discontinuation. Overall survival was assessed every 12 weeks after progression. Adverse events (AEs) were graded according to the National Cancer Institute Common Terminology Criteria for Adverse Events version 4.0. […]
Statistical analysis. Efficacy data were analyzed on an intent-to-treat basis and safety data were reported for all patients who received ≥1 dose of trial treatment. […] For time-to-event endpoints, rPFS, time to pain progression, and OS, P-values were calculated using log-rank tests, stratified by stratification factors. […] The Kaplan-Meier method was used to calculate medians for each trial arm. Logistic regression models adjusted for stratification factors were used to analyze objective responses. A multiple-testing procedure was used to control for the study-wide type 1 error rate. […] For OS, the two-sided 5% level of alpha was split at the interim (0.01) and final (0.047) analyses using an O′Brien-Fleming spending function.

[4] = overall population, evaluable patients
[5] = overall population, olaparib vs control

O=C(c1cc(Cc2n[nH]c(=O)c3ccccc23)ccc1F)N1CCN(C(=O)C2CC2)CC1 [Olaparib, 4-[(3-{[4-(cyclopropane-carbonyl)piperazine-1-yl]carbonyl}-4-fluorophenyl)methyl]-2H-phthalazin-1-one]
Median TTPP (months), sensitivity analysis including any death as an event [1]: 17.22 months
median OS (interim analysis) ([1]; data maturity 38%): 18.50 months
CTC conversion ([1]; evaluable patients): 29.9%
PSA50 response ([1]; evaluable patients): 43.1%
confirmed objective response rate ([1]; evaluable patients): 33.3%
reduction in risk for disease progression or death ([1]; olaparib vs control): 66%
median rPFS (radiographic progression-free survival) by BICR ([1]; primary endpoint): 7.39 months
Median TTPP (months), sensitivity analysis including any death as an event ([2]; Cohorts A + B (overall population)): 11.89 months
TTPP Pain severity, Events (%) ([2]; overall population): 9.4%
TTPP Pain severity, Events n ([2]; overall population): 24 n
TTPP Worst pain, Events (%) ([2]; overall population): 12.5%
TTPP Worst pain, Events n ([2]; overall population): 32 n
Time to Opiate use, Events (%) ([2]; overall population): 37.1%
Time to Opiate use, Events n ([2]; overall population): 65 n
Time to Opiate use, Median (m) ([2]; overall population): 18.0 m
median rPFS by BICR ([2]; overall population): 5.82 months
TTPP Pain severity, 6-month rate (%) ([2]; overall population, 6 months): 88.7%
TTPP Worst pain, 6-month rate (%) (free of pain progression) ([2]; overall population, 6 months): 85.2%
Time to Opiate use, 6-month rate (%) ([2]; overall population, 6 months): 25%
TTPP Pain severity, 12-month rate (%) ([2]; overall population, 12 months): 81.0%
TTPP Worst pain, 12-month rate (%) ([2]; overall population, 12 months): 76.3%
Time to Opiate use, 12-month rate (%) ([2]; overall population, 12 months): 41%
Median OS at interim analysis ([2]; overall population, data maturity 41%): 17.51 months
CTC conversion [2, 4]: 26.8%
PSA50 response [2, 4]: 30.0%
confirmed objective response rate [2, 4]: 21.7%
TTPP Pain severity, HR [2, 5]: 0.71
TTPP Worst pain, HR [2, 5]: 0.64
Time to Opiate use, HR [2, 5]: 0.67
median progression free survival greater than for subjects receiving the standard of care treatment ([2]; overall subject population): at least 2 months
Anemia, All grades, (%) [3]: (46.5) %
Anemia, Grade ≥3, (%) [3]: (21.5) %
Any adverse event, All grades, (%) [3]: (95.3) %
Any adverse event, Grade ≥3, (%) [3]: (50.8) %
Arthralgia, All grades, (%) [3]: (9.4) %
Arthralgia, Grade ≥3, (%) [3]: (0.4) %
Back pain, All grades, (%) [3]: (13.7) %
Back pain, Grade ≥3, (%) [3]: (0.8) %
Cough, All grades, (%) [3]: (10.9) %
Decreased appetite, All grades, (%) [3]: (30.1) %
Decreased appetite, Grade ≥3, (%) [3]: (1.2) %
Diarrhea, All grades, (%) [3]: (21.1) %
Diarrhea, Grade ≥3, (%) [3]: (0.8) %
Discontinuation of intervention due to adverse event, (%) [3]: (18.0) %
Dose reduction due to adverse event, (%) [3]: (22.3) %
Dyspnea, All grades, (%) [3]: (10.2) %
Dyspnea, Grade ≥3, (%) [3]: (2.3) %
Fatal adverse event, (%) [3]: (3.9) %
Fatigue & asthenia, All grades, (%) [3]: (41.0) %
Fatigue & asthenia, Grade ≥3, (%) [3]: (2.7) %
Interruption of intervention due to adverse event, (%) [3]: (44.9) %
Nausea, All grades, (%) [3]: (41.4) %
Nausea, Grade ≥3, (%) [3]: (1.2) %
Peripheral edema, All grades, (%) [3]: (12.5) %
Urinary tract infection, All grades, (%) [3]: (7.0) %
Urinary tract infection, Grade ≥3, (%) [3]: (1.6) %
Vomiting, All grades, (%) [3]: (18.4) %
Vomiting, Grade ≥3, (%) [3]: (2.3) %
patients reporting new primary malignancies [3]: 1 n
pulmonary embolism events, % [3]: 4.3%
pulmonary embolism events, number ([3]; none were fatal): 11
